Biological target: T1, rat mGluR5 (Rattus norvegicus, UniProt P31424)
T1 construct: expressed in transfected cells
Experiment: mGluR5 activity, cell-based Ca2+ fluorescence (FDSS) assay in human embryonic kidney cells transfected with rat mGluR5
Details: HEK cells transfected with rat mGluR5; antagonism of EC80 glutamate response; single experiment or average of two where no error is given
Description: Human embryonic kidney (HEK) cells transfected with rat or human mGluR5 were plated in clear bottom assay plates for assay in a Functional Drug Screening System (FDSS). The cells were loaded with a Ca^2+-sensitive fluorescent dye (e.g., Fluo-4), and the plates were washed and placed in the FDSS instrument. Test compound was applied to cells 3 seconds after baseline readings were taken. Cells were incubated with the test compounds for 140 seconds and then stimulated with an EC20 concentration of an mGluR5 agonist (e.g., glutamate, 3,5-dihydroxyphenylglycine, or quisqualate); 60-80 seconds later an EC80 concentration of agonist was added and readings taken for an additional 40 seconds. Data were collected at 1 Hz. […] Concentration response curves were generated using a four parameter logistical equation.
The above described assay was operated in two modes. In the first mode (utilizing a triple add protocol), a range of concentrations of the present compounds were added to cells, followed by two single fixed concentrations of agonist (EC20 followed by EC80). If a compound acted as a potentiator, an EC50 value for potentiation of the EC20 response and a maximum extent of potentiation by the compound at this concentration of agonist was determined by non-linear curve fitting. If a compound acted as an antagonist, an IC50 value for antagonism of the EC80 response and a maximum extent of antagonism by the compound at this concentration of agonist was determined by non-linear curve fitting. In the second mode (utilizing a double add protocol), several fixed concentrations of the present compounds were added to various wells on a plate, followed by a range of concentrations of agonist for each concentration of present compound; the EC50 values for the agonist at each concentration of compound were determined by nonlinear curve fitting. A decrease in the EC50 value of the agonist with increasing concentrations of the present compounds (a leftward shift of the agonist concentration-response curve) is an indication of the degree of mGluR5 positive allosteric modulation at a given concentration of the present compound. An increase in the EC50 value of the agonist with increasing concentrations of the present compounds (a rightward shift of the agonist concentration response curve) is an indication of the degree of mGluR5 antagonism at a given concentration of the present compound. The second mode also indicates whether the present compounds also affect the maximum response to mGluR5 to agonists.
The mGluR5 activity was determined using the metabotropic glutamate receptor activity assays in human embryonic kidney cells as described herein, wherein the human embryonic kidney cells were transfected with rat mGluR5. The mGluR5 activity data for some compounds are shown as the average of at least three experiments with the standard error in these cases. If no error is indicated for the mGluR5 activity, the values given represent the results from a single experiment or the average of two experiments. The compounds in Table 1 were synthesized with methods identical or analogous to those shown herein. The requisite starting materials were commercially available, described in the literature, or readily synthesized by one skilled in the art of organic synthesis.

T1 sequence (P31424 21-1171 isoform P31424-2 limits assumed): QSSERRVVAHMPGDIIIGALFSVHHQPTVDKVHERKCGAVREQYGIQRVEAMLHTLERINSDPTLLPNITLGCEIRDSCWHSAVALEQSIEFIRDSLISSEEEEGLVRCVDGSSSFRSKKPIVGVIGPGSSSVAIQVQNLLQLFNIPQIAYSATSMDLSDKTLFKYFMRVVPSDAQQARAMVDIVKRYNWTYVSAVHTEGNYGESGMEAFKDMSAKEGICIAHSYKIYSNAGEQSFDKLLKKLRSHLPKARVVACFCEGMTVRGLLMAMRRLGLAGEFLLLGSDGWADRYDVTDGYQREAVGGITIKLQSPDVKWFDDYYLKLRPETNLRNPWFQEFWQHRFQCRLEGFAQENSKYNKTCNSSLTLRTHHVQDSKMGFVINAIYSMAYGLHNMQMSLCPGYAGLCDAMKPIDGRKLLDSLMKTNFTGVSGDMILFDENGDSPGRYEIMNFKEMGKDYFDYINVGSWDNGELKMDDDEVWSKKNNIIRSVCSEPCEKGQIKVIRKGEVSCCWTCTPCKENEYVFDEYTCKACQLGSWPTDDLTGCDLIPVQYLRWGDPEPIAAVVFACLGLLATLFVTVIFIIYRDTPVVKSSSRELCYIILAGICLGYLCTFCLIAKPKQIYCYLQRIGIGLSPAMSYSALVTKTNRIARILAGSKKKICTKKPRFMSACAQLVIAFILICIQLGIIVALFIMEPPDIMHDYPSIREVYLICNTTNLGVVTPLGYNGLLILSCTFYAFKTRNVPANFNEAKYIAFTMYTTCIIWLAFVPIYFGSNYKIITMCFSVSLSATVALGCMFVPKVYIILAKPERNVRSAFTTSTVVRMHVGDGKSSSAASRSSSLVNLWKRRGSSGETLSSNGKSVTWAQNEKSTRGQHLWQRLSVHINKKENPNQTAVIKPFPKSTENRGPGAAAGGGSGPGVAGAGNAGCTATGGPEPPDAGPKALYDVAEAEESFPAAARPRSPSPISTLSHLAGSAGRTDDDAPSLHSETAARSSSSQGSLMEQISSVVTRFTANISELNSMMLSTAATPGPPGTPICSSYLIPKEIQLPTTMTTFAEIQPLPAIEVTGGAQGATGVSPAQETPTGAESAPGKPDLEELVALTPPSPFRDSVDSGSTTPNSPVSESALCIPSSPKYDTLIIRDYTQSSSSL

SMILES	IC50 [nM]
O=C(c1cncnc1)c1cc(C(=O)Nc2ccc(Cl)cn2)c2ncccc2c1	148
Cc1csc(NC(=O)c2cc(C(=O)c3cncnc3)cc3cccnc23)n1	73
O=C(c1cncnc1)c1cc(C(=O)Nc2cccc(Cl)n2)c2ncccc2c1	696
O=C(c1cncc(F)c1)c1cc(C(=O)Nc2ccc(Cl)cn2)c2ncccc2c1	> 30000
Cc1csc(NC(=O)c2cc(C(=O)c3cncc(F)c3)cc3cccnc23)n1	444
Cc1csc(NC(=O)c2cc(C(F)c3cncnc3)cc3cccnc23)n1 (stereo not drawn)	127
O=C(Nc1ccc(F)cn1)c1cc(C(F)(F)c2cncnc2)cc2cccnc12	109
Cc1csc(NC(=O)c2cc(C(C)c3cncnc3)cc3cccnc23)n1 (stereo not drawn)	258
CC(c1cncnc1)c1cc(C(=O)Nc2ccc(F)cn2)c2ncccc2c1 (stereo not drawn)	540
O=C(c1cncnc1)c1cc(C(=O)Nc2ccc(F)cn2)c2nccnc2c1	> 10000
Cc1csc(NC(=O)c2cc(C(=O)c3cncnc3)cc3nccnc23)n1	380
O=C(c1cncnc1)c1cc(C(=O)Nc2ccc(Cl)cn2)c2nccnc2c1	176
Cc1csc(NC(=O)c2cc(C(O)c3cncnc3)cc3cccnc23)n1 (stereo not drawn)	> 10000

The remaining lines, values ahead:

IC50 [nM]	SMILES
106	O=C(c1cncnc1)c1cc(C(=O)Nc2ccc(F)cn2)c2ncccc2c1
163	Cc1cccc(NC(=O)c2cc(C(=O)c3cncnc3)cc3cccnc23)n1
645	O=C(c1cncnc1)c1cc(C(=O)Nc2cccc(F)n2)c2ncccc2c1
1620	Cc1cccc(NC(=O)c2cc(C(=O)c3cncc(F)c3)cc3cccnc23)n1
> 30000	O=C(c1cncc(F)c1)c1cc(C(=O)Nc2cccc(Cl)n2)c2ncccc2c1
83	O=C(Nc1ccc(F)cn1)c1cc(C(F)c2cncnc2)cc2cccnc12 (stereo not drawn)
890	COC(c1cncnc1)c1cc(C(=O)Nc2ccc(F)cn2)c2ncccc2c1 (stereo not drawn)
552	COC(c1cncnc1)c1cc(C(=O)Nc2nc(C)cs2)c2ncccc2c1 (stereo not drawn)
> 30000	Cc1csc(NC(=O)c2cc(C(O)c3cncc(F)c3)cc3cccnc23)n1 (stereo not drawn)
3090	Cc1cccc(NC(=O)c2cc(C(=O)c3cncnc3)cc3nccnc23)n1
> 10000	O=C(Nc1ccc(F)cn1)c1cc(C(F)c2cncnc2)cc2nccnc12 (stereo not drawn)

Tested on: N-methyl-D-aspartate (NMDA) receptor
Experiment: not given
Details: at higher concentrations; cited from earlier work

SMILES	inhibition of NMDA receptor activity
Cc1cccc(C#Cc2ccccc2)n1 [MPEP, 2-methyl-6-(phenylethynyl)pyridine]	directly inhibit

Biological target: mGluR4 (Homo sapiens, UniProt Q14833)
Experiment: not given
Details: cited from earlier work

Sequence of mGluR4 (Q14833 33-912): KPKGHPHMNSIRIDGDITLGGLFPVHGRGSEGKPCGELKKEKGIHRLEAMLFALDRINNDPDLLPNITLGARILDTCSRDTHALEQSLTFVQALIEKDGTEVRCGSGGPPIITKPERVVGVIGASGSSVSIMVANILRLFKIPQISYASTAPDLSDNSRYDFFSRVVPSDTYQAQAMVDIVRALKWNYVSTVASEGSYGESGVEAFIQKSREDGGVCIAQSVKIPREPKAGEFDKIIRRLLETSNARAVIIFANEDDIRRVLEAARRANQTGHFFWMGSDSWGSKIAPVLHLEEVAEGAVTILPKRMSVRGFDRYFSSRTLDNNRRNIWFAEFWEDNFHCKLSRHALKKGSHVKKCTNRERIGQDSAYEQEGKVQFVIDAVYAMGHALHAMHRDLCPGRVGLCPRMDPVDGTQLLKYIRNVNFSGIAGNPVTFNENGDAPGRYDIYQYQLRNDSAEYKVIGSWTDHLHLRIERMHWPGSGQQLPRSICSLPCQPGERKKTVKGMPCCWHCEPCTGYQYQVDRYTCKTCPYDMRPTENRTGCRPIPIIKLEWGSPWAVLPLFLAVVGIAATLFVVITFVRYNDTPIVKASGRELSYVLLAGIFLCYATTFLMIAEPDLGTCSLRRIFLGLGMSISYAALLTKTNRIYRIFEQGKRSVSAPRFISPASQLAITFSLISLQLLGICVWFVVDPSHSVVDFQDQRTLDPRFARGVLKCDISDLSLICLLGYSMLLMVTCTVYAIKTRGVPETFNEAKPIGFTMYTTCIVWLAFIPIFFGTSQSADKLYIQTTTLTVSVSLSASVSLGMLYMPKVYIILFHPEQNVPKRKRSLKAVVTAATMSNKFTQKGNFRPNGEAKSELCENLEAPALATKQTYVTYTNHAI

SMILES	modulation of mGluR4
Cc1cccc(C#Cc2ccccc2)n1 [MPEP, 2-methyl-6-(phenylethynyl)pyridine]	positive allosteric modulator

Biological target: T2, cytochrome P450 1A2 (Homo sapiens, UniProt P05177)
T2 sequence (P05177 1-516): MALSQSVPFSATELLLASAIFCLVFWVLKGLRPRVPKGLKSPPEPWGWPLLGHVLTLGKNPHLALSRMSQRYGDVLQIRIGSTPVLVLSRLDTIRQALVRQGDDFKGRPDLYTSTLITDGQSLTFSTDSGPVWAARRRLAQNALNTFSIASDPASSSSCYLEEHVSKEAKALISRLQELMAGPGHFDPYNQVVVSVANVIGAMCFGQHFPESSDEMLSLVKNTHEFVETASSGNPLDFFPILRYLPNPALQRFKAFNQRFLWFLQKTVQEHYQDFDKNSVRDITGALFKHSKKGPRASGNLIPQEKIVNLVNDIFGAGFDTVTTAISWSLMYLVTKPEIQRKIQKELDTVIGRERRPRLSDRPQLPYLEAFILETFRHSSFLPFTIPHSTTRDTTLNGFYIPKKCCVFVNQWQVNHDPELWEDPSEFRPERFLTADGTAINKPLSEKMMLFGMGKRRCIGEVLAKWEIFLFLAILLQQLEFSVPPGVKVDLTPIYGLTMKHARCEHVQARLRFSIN
Experiment: not given
Details: cited from earlier work

SMILES	inhibition of cytochrome P450 1A2
Cc1nc(C#Cc2cccnc2)cs1 [MTEP, 3-[(2-methyl-1,3-thiazol-4-yl)ethynyl]pyridine]	potent inhibitor

Tested on: not given
Experiment: not given
Details: intravenous administration to rhesus monkeys; cited from earlier work

SMILES	clearance
Cc1nc(C#Cc2cccnc2)cs1 [MTEP, 3-[(2-methyl-1,3-thiazol-4-yl)ethynyl]pyridine]	efficiently cleared

Tested on: marble burying activity in mice
Experiment: not given
Details: literature reports; cited from earlier work

SMILES	effect in the marble burying model
Cc1cccc(C#Cc2ccccc2)n1 [MPEP, 2-methyl-6-(phenylethynyl)pyridine]	effective
CN1CC(=O)N=C1NC(=O)Nc1cccc(Cl)c1 [fenobam, 1-(3-chlorophenyl)-3-(1-methyl-4-oxo-4,5-dihydro-1H-imidazol-2-yl)urea]	effective

— US9533982B2, “Substituted bicyclic heteroaryl carboxamide analogs as mGluR5 negative allosteric modulators” (Vanderbilt University, priority 2014, dated 2017)
